“Also recorded” adds a separate entry of the source. Like-named read-outs stand apart in the source and are kept apart here.
Legend:
[1] = GenX Free Acid stock degradation / stability in DMSO; type: physicochemical; settings: DMSO as diluent/vehicle
[2] = tested on: zebrafish; settings: cited from earlier work; for EC50: previously published zebrafish DevTox assay data, read-out: EC50 for developmental toxicity

SMILES	Stability in DMSO [1]	EC50 ([2]; ref Padilla et al. 2012) [µM]	EC50 ([2]; ref Truong et al. 2014) [µM]	DevTox assay phenotype ([2]; Table 5 summary, zebrafish, ref Hagenaars et al. 2011, Jantzen et al. 2016, Ulhaq et al. 2013a)
O=C(O)C(F)(OC(F)(F)C(F)(F)C(F)(F)F)C(F)(F)F (stereo not drawn) [GenX Free Acid, Perfluoro-2-propoxypropanoic acid]	unstable in DMSO; also recorded: not stable in DMSO	–	–	–
O=S(=O)(O)C(F)(F)C(F)(F)C(F)(F)C(F)(F)C(F)(F)C(F)(F)F [PFHxS, Perfluorohexanesulfonic acid]	–	116	115	–
O=C(O)C(F)(F)C(F)(F)C(F)(F)C(F)(F)C(F)(F)C(F)(F)C(F)(F)F [PFOA, Perfluoro-n-octanoic acid]	–	–	–	Positive
O=S(=O)(O)C(F)(F)C(F)(F)C(F)(F)C(F)(F)C(F)(F)C(F)(F)C(F)(F)C(F)(F)F [PFOS, Perfluorooctanesulfonic acid]	–	42.3	3.5	–

Reference: paper PMC7228129, “Evaluation of Developmental Toxicity, Developmental Neurotoxicity, and Tissue Dose in Zebrafish Exposed to GenX and Other PFAS” (Environmental Health Perspectives, 2020)
